Patent US20090036470A1, “PALIPERIDONE DERIVATIVES” (priority 2007, published 2009)

Assay: Conversion of the compound (2) into paliperidone in acidic fluid (dissolution test of the Example 5 tablet in Simulated Gastric Fluid)
Assay type: physicochemical
Protocol: Conversion of the Compound (2) into Paliperidone in Acidic Fluid
A tablet of the following composition was prepared:
Compound (2), Prosolv HD-90 and low substituted hydroxypropylcellulose were mixed for 10 minutes at 22 rpm in a free fall mixer. The blend was forced sieved over a 250 micron sieve. The blend was then mixed for another 10 minutes in a free fall mixer at 22 rpm. The sodium stearyl fumarate was sieved over an 800 micron sieve and added to the blend. The blend was mixed for another 5 minutes at 22 rpm. Tablets were compressed on the Ek-0. Tablet mass was 100 mg, tablet hardness 30 N and the tablet diameter was 8 mm.
Determination of the dissolution assay at single point or dissolution profile was performed in Simulated Gastric Fluid (SGF) without pepsin (pH=1.2) with the paddle apparatus based on USP <711>, “Apparatus 2”. The dissolution samples were immediately neutralized to pH=7 upon sampling. The amount of paliperidone and compound (2) in the neutralized dissolution samples at the specified time point(s) was determined by HPLC at 280 nm.

Question: With `Cc1nc2n(c(=O)c1CCN1CCC(c3noc4cc(F)ccc34)CC1)CCCC2OC1CCCCO1` (centres unmarked) [Compound (2)] as the compound, how does the “time for quantitative conversion into paliperidone” value (Simulated Gastric Fluid without pepsin, pH=1.2, USP paddle apparatus 2, from Example 5 tablet (10.8 mg compound (2)), HPLC at 280 nm, six vessel test, FIGS. 1 and 2) read?
Answer: approx. 10 minutes

Question: And the “extent of conversion into paliperidone” value (acidic fluid, as shown in FIG. 1)?
Answer: quantitatively
